Data from patent US20170367588A1, “METHODS USING FACIAL TEMPERATURE TO EVALUATE POST-INGESTIVE IMPACT OF FOOD INGREDIENTS ON FAT OXIDATION” (NESTEC S.A., priority 2014, published 2017).
“Also recorded” adds a separate entry of the source.

Experiments:
[1] = literature (Ludy et al. 2011); cited from earlier work
[2] = clinical trial, facial thermography with infrared camera; format: in vivo, human; parameters: AUC Difference of the temperature vs placebo: unit not given beside the values; settings: for nose temperature after intake: Zone-2 (nose), over the 15 minutes post-ingestion, FIG. 4A; for cheek temperature after intake: Zone-12 (cheeks), immediately after intake, FIG. 4B
Procedure: Participants. Participants were healthy men with 19<BMI<25 and 60 kg minimum body weight. The age was in the 20-50 range. Participants had to like spicy food but are moderate spicy food eaters. Screening of candidates was done through a questionnaire on spicy food habits. The clinical trial we approved by a competent ethics committee (Commission cantonale (VD) d'Etique pour recherché sur l'Etre Humain) and participants gave their written informed consent. This trial was conducted according to the principles and rules laid down in the Declaration of Helsinki and its subsequent amendments.
The presented study was a double-blinded, balanced, randomized, cross-over, placebo-controlled clinical trial. For each measure, the subjects had tested after an over-night fast. They had been requested to use their car or public transportation to come to the investigation site in order to keep morning physical activity level as low as possible. Moreover, consumption of caffeine was not permitted after the lunch meal (12 p.m.) before each session, and participants had been asked to refrain their spice consumption for two days prior each session. Each sample was evaluated in two different sessions A and B, with the same design but different recordings (FIG. 1A).
Each session started at 8:00 a.m. with a 30 minutes rest period and measurement preparation. During all the testing sessions, subjects were seated comfortably. Room temperature was in the 20 to 22° C. range. Subjects were instructed to remain quiet and still, but they were allowed to watch TV. Parameters were recorded 30 minutes before and 90 minutes after ingestion of each sample (FIG. 1A).
Treatment. All active TRP agonists were in 200 ml liquid tomato juice (Granini) at room temperature and served with a slice of bread. Placebo was 200 ml Commercial tomato juice. Active ingredients per 200 ml were 1 mg of Capsaicin (Spectrum chemicals), 0.2 ml of Givaudan cooling flavor (QB-113-979-5) or 70 mg of Cinnamaldehyde (Sigma). All ingredients were in vitro validated in cell lines expressing hTRPV1, hTRPA1 or hTRPM8 according to the calcium imaging method described in Riera et al, 2009 (FIG. 2).
Facial thermography. In this study, infrared thermal imaging of the face has been used as an exploratory, non-invasive recording method of sympathetic nervous system activity. Using a FLIR A325 infrared camera (FLIR Systems, Inc) subjects were continuously recorded at a distance of ˜1 m. They were comfortably installed in a chair with the head maintained fixed on a chin-rest support, to facilitate the further image analysis. Room temperature was in the 20 to 22° C. range. The camera FLIR A325 is equipped with a 25° lens, resolution is 320×240 pixels, and sensitivity is 0.05° C. and accuracy±2° C. The recording was performed by acquiring 1 image/second. Thermographic imaging software, FLIR ResearchIR is used to acquire images.
Facial thermography data were extracted using in-home algorithms developed within the Matlab framework (The Mathworks Inc., Natick, Mass., USA). First, a graphical user interface (GUI) was created to help defining manually a temperature threshold highlighting primarily subject's faces. An alignment of the face was then computed and twelve regions of interest (ROIs) drawn manually using the GUI (FIG. 1B). Face alignment/orientation correction was computed image by image by first creating a binary mask using the manually set temperature threshold. Holes in the binary mask were filled and the region with the greatest continuous area was selected. The selected region centroid was determined using the built-in Matlab region properties tool (regionprops). With the same tool, an ellipse was fitted within the region to obtain the angular orientation of the ellipse's major axis compared to the x-axis. […]

[3] = clinical trial, indirect calorimetry (energy expenditure and substrate oxidation); format: in vivo, human; settings: for energy expenditure compared to placebo / fat oxidation compared to placebo: healthy men, time standardized AUC after ingestion; for energy expenditure compared to placebo: single ingestion in 200 ml tomato juice (1 mg capsaicin, 70 mg cinnamaldehyde, 200 μl CF); for fat oxidation compared to placebo: single ingestion in 200 ml tomato juice; for higher post-prandial fat oxidation compared to placebo, magnitude: over the period of the experiment (90 min), capsaicin 1 mg/200 ml, cinnamaldehyde 70 mg/200 ml
Procedure: Participants. Participants were healthy men with 19<BMI<25 and 60 kg minimum body weight. The age was in the 20-50 range. Participants had to like spicy food but are moderate spicy food eaters. Screening of candidates was done through a questionnaire on spicy food habits. The clinical trial we approved by a competent ethics committee (Commission cantonale (VD) d'Etique pour recherché sur l'Etre Humain) and participants gave their written informed consent. This trial was conducted according to the principles and rules laid down in the Declaration of Helsinki and its subsequent amendments. The presented study was a double-blinded, balanced, randomized, cross-over, placebo-controlled clinical trial. For each measure, the subjects had tested after an over-night fast. They had been requested to use their car or public transportation to come to the investigation site in order to keep morning physical activity level as low as possible. Moreover, consumption of caffeine was not permitted after the lunch meal (12 p.m.) before each session, and participants had been asked to refrain their spice consumption for two days prior each session. Each sample was evaluated in two different sessions A and B, with the same design but different recordings (FIG. 1A). Each session started at 8:00 a.m. with a 30 minutes rest period and measurement preparation. During all the testing sessions, subjects were seated comfortably. Room temperature was in the 20 to 22° C. range. Subjects were instructed to remain quiet and still, but they were allowed to watch TV. Parameters were recorded 30 minutes before and 90 minutes after ingestion of each sample (FIG. 1A). Treatment. All active TRP agonists were in 200 ml liquid tomato juice ([…]) at room temperature and served with a slice of bread. Placebo was 200 ml Commercial tomato juice. Active ingredients per 200 ml were 1 mg of Capsaicin (Spectrum chemicals), 0.2 ml of Givaudan cooling flavor (QB-113-979-5) or 70 mg of Cinnamaldehyde (Sigma). All ingredients were in vitro validated in cell lines expressing hTRPV1, hTRPA1 or hTRPM8 according to the calcium imaging method described in Riera et al, 2009 (FIG. 2). Energy expenditure was measured using indirect calorimetry. Indirect calorimetry is a measure of respiratory gas exchange (oxygen consumption and carbon dioxide production), which estimates the amount of calories “burned.” This measurement was performed with the MAX-II device (Max II metabolic system, AEI technologies, Naperville, Ill., USA). The equation used by the MAX-II device to evaluate energy expenditure is the simplified Weir formula: REE=(3.941×VO2)+(1.106×VCO2), where: After answering questions from the compliance questionnaire, participants were comfortably installed in semi-recumbent position in a reclining bed, at an angle allowing the participant to ingest the test solution without having to adjust position between metabolic rate measurement periods and treatment ingestion. A canopy was installed over participant's head. Test started 08:30 a.m. following a stabilization period allowing FeCO2 values to reach physiologic range. Substrate oxidation (carbohydrates and fat utilization) and the respiratory quotient (RQ) were calculated using the VO2 and VCO2 values obtained from the MAX-II device during the same timeline than energy expenditure. VO2 and VCO2 values were corrected for protein oxidation. The following equations were used to calculate the amount of fat and carbohydrates oxidized (Dietary Reference Intakes for Energy, Carbohydrate, Fiber, Fat, Fatty Acids, Cholesterol, Protein, and Amino Acids (Macronutrients) (2002/2005) National Academies Press, pp. 633-645): All endpoints have been analyzed using a linear mixed model to take into account the correlation between repeated measures. […]

mouse variant of TRPA1 = mouse variant of TRPA1 (Mus musculus, UniProt Q8BLA8); settings: mouse variant of TRPA1, based on the literature; cited from earlier work
hTRPA1 = molecular target: T1, hTRPA1 (Homo sapiens, UniProt O75762); experiment: in vitro validation in cell lines expressing hTRPA1, calcium imaging; format: cell-based; settings: human TRPA1, in vitro, data not shown
T1 construct: expressed in transfected cells
T1 sequence (O75762 whole entry): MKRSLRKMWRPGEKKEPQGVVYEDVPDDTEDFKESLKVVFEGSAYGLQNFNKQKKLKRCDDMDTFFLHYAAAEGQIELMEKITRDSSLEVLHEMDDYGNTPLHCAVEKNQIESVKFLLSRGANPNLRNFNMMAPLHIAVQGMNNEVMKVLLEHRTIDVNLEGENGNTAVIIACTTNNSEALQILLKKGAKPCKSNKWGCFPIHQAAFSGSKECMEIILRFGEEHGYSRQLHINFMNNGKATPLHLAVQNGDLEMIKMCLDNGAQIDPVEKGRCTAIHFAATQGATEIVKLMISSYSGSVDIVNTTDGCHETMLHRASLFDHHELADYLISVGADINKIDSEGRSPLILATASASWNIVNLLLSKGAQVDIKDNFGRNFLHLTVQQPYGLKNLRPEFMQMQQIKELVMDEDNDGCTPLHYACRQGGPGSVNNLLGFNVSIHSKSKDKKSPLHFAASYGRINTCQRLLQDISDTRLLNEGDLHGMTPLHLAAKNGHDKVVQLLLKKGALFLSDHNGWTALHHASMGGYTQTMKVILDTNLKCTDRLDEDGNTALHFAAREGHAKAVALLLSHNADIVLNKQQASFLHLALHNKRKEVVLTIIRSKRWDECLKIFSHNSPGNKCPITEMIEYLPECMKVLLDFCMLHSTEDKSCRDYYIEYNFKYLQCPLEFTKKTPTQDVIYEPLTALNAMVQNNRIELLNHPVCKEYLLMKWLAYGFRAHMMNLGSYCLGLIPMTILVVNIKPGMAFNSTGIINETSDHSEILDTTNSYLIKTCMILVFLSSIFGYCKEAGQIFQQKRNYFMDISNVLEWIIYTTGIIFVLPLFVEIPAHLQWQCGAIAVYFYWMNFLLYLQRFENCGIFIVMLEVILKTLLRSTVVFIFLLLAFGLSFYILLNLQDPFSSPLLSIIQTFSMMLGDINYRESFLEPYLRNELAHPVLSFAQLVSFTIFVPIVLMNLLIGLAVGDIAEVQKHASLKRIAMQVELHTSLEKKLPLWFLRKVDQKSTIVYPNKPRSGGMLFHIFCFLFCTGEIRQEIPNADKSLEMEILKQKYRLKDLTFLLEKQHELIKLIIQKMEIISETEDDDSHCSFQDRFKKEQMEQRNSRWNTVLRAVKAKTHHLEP
Procedure: Treatment. All active TRP agonists were in 200 ml liquid tomato juice ([…]) at room temperature and served with a slice of bread. Placebo was 200 ml Commercial tomato juice. Active ingredients per 200 ml were 1 mg of Capsaicin (Spectrum chemicals), 0.2 ml of Givaudan cooling flavor (QB-113-979-5) or 70 mg of Cinnamaldehyde (Sigma). All ingredients were in vitro validated in cell lines expressing hTRPV1, hTRPA1 or hTRPM8 according to the calcium imaging method described in Riera et al, 2009 (FIG. 2). The objective of this trial was to assess if the stimulation of TRPA1 and TRPM8 pathways could be as efficient at impacting the energy balance as is the simulation of TRPV1 by capsaicin or capsiate. Based on the literature, we selected the most representative TRPA1 agonist: cinnamaldehyde activating specifically the mouse variant of TRPA1 with an EC50 of 60 μM, its specificity on the human form of the receptor has been confirmed in vitro (data not shown). In order to identify an efficient and specific agonist of hTRPM8, different ingredients with cooling properties have been evaluated in vitro. A cooling flavor (CF) provided by Givaudan, activating specifically hTRPM8 with an EC50 of 0.07% (FIG. 2) has been selected. As a positive control, capsaicin was evaluated in parallel to cinnamaldehyde and CF in this trial.

[4] = Zone 1, all period post ingestion
[5] = Zone 2 (nose), all period post ingestion
[6] = Zone 3, all period post ingestion
[7] = Zone 4, all period post ingestion
[8] = Zone 5, all period post ingestion
[9] = Zone 6, all period post ingestion
[10] = Zone 7, all period post ingestion
[11] = Zone 8, all period post ingestion
[12] = Zone 9, all period post ingestion
[13] = Zone 10 (chin), all period post ingestion
[14] = Zone 11, all period post ingestion
[15] = Zone 12 (cheeks), all period post ingestion

Compound	AUC Difference of the temperature vs placebo [2, 4]	AUC Difference of the temperature vs placebo [2, 5]	AUC Difference of the temperature vs placebo [2, 6]	AUC Difference of the temperature vs placebo [2, 7]	AUC Difference of the temperature vs placebo [2, 8]	AUC Difference of the temperature vs placebo [2, 9]	AUC Difference of the temperature vs placebo [2, 10]	AUC Difference of the temperature vs placebo [2, 11]	AUC Difference of the temperature vs placebo [2, 12]	AUC Difference of the temperature vs placebo [2, 13]	AUC Difference of the temperature vs placebo [2, 14]	AUC Difference of the temperature vs placebo [2, 15]	nose temperature after intake [2]	energy expenditure compared to placebo [3]	fat oxidation compared to placebo [3]	higher post-prandial fat oxidation compared to placebo, magnitude [3]	further results
COc1cc(CNC(=O)CCCC/C=C/C(C)C)ccc1O [capsaicin]	18.584	54.439	16.959	14.893	8.126	13.186	9.255	12.469	26.056	25.26	3.299	22.575	significant increase; also recorded: increase nose temperature	no significant differences	higher level of fat oxidation	about 556.2 mg	efficient doses for increasing energy expenditure and fat oxidation [1]: ≥ 20 mg
O=CC=Cc1ccccc1 [cinnamaldehyde]	22.396	42.064	30.816	22.118	14.065	21.144	18.856	18.384	18.947	34.072	18.237	26.571	significant increase; also recorded: increase nose temperature	increases energy expenditure	higher level of fat oxidation	~512.7 mg	EC50 (mouse variant of TRPA1): 60 µM; specificity on the human form of the receptor (hTRPA1): confirmed; chin temperature compared to placebo ([2]; Zone-10 (chin), prolonged time after ingestion, adjusted p-value 0.0486): increases chin temperature; cheek temperature after intake [2]: increases unilaterally cheek temperature; cheek temperature after intake ([2]; listed as Cinnamaldehyde): increased temperature
